From US7647217B2, “Structure of the farnesoid X receptor ligand binding domain and methods of use therefor” (The Salk Institute for Biological Studies, priority 2002, dated 2010)
“And” between values parts separate entries of the source, which are not always exact repeats. Equal entries are not always repeated.

Assays:
[1] = target: T1, FXR (Mus musculus, UniProt Q60641); test: Cell-based screen: full-length FXR expression vector co-transfected with hormone response element luciferase reporter; details: FXR agonist activity
T1 construct: expression vector containing the full-length FXR receptor; expressed in transfected cells
T1 sequence (Q60641 1-488): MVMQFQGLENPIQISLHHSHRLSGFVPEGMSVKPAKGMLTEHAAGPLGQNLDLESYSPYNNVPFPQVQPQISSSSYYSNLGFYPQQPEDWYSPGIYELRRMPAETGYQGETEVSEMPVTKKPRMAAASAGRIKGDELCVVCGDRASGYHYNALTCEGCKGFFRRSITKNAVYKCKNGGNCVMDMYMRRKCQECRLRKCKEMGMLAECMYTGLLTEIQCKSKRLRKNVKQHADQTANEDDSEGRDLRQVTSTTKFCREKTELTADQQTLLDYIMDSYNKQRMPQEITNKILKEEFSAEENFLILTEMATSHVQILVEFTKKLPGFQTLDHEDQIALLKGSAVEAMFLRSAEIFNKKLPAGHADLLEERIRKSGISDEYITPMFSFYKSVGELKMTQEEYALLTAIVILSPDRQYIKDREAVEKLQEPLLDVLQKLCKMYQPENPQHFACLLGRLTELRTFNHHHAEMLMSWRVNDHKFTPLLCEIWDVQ
T1 sequence (P19793 1-462 partner): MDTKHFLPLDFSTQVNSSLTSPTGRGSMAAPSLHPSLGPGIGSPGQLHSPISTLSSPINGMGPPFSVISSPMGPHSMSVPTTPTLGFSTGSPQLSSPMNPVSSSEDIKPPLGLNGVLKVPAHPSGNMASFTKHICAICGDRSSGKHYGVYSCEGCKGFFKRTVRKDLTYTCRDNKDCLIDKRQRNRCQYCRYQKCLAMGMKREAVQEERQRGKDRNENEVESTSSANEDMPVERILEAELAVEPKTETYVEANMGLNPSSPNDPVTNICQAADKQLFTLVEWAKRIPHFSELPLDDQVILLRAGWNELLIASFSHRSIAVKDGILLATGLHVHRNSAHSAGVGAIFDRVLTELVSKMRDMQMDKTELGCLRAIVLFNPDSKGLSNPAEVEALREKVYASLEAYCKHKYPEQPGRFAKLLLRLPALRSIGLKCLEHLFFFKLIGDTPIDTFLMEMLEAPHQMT
Description: (§1) For transfection of these constructs, monkey CV-1 HEPG2 and HEK293T cells were grown in DMEM supplemented with 10% FBS, 50 U/ml penicillin G, and 50 μg/ml streptomycin sulfate at 37° C. in 7% CO2. CV-1 cells (60%-70% confluence, 48-well plate) were cotransfected with 16.6 ng of the appropriate expression vector, 100 ng of reporter plasmid, and 100 ng of pCMX-LacZ in 200 μl of DMEM containing 10% FBS by the N-[1-(2,3-dioleoyloxy)propyl]-N,N,N-trimethylammonium methylsulfate (DOTAP)-mediated procedure. After 24 hr, the medium was replaced, and cells were harvested and assayed for luciferase activity 36-48 hr after transfection. The luciferase activity was normalized to the level of β-galactosidase activity. Each transfection was performed in triplicate and repeated at least three times.
To discover novel small molecule ligands for FXR, a constructed combinatorial library of approximately 10 000 benzopyran compounds was screened using a cell-based assay in a 384 well format (Nicolaou et al. (2000). Natural product-like combinatorial libraries based on privileged structures. 1. General principles and solid-phase synthesis of benzopyrans. J. Am. Chem. Soc. 122, 9939-9953; Natural product-like combinatorial libraries based on privileged structures. 2. Construction of a 10000-membered benzopyran library by directed split-and-pool chemistry using nanokans and optical encoding. J. Am. Chem. Soc. 122, 9954-9967; and Natural product-like combinatorial libraries based on privileged structures. 3. The “libraries from libraries” principle for diversity enhancement of benzopyran libraries. J. Am. Chem. Soc. 122, 9968-9976). This cell-based screen was based on the co-transfection of an expression vector containing the full-length FXR receptor with a reporter vector. The reporter vector contains a hormone response element under a minimal eukaryotic promoter driving a luciferase reporter gene. […] Lead compounds were re-tested and checked for cross-reactivity for the retinoid X receptor (RXR), the heterodimeric partner of FXR. None of the identified compounds had the ability to bind or activate RXR.
Systematic optimization of regions I and II of the prototypical structure through multiple rounds of screening using smaller “focused” chemical libraries defined the requisite features of these domains for high affinity binding to FXR. […] This intelligence gathering was then used to design and synthesize on a solid support a focused library of 94 new compounds for further optimization.

[2] = target: T2, GAL4-FXR LBD (Rattus norvegicus, UniProt Q62735); test: GAL4 DBD-FXR LBD chimeric receptor transcriptional activation assay (with/without RXR); format: cell-based; details: for activation of chimeric FXR construct: in the presence and absence of RXR; for selectivity for FXR relative to other NHRs: chimeric NHR constructs; for efficacy compared with GW4064: in the absence of RXR
T2 construct: expressed in transfected cells; host or cells: CV-1 (monkey)
T2 sequence (Q62735 245-469 limits assumed): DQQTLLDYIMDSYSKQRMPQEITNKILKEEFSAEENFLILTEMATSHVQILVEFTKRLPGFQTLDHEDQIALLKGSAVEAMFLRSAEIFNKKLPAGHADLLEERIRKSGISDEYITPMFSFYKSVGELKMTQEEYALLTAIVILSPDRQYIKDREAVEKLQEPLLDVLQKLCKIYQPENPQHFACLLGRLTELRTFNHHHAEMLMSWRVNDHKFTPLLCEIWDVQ
Description: FIGS. 3A-3E collectively show the results of ligand activation of CV-1 cells co-transfected with a luciferase reporter gene with a variety of receptor expression constructs. […] FIGS. 3C-3E show the results of CV-1 cells transiently transfected with the indicated reporter constructs, treated with either DMSO or 10 μM of the compounds fexaramine (3C), fexarine (3D), fexarene (3E). Reporter activity was normalized to the internal control and the data plotted as fold activation relative to untreated cells. All transfections contained CMX-βgal as an internal control.
The expression plasmids pCMX, pCMX-LacZ, pCMX-mFXRFL, pCMX-hRXRFL, pCMX-GALDBD-rFXRLBD and other pCUX-GALDBD-NR LBDs (hRXRα, hPPARαγδ, mPXR, hPXR, hLXRα, HTRβ, hRARβ, mCAR, mERR3 and hVDR) have been described elsewhere (Blumberg et al. (1998). SXR, a novel steroid and xenobiotic-sensing nuclear receptor. Genes Dev. 12(20), 3195-205). The reporter plasmids pMH2004-TK-luc, pTKECRE*6-luc, pTKER-8*2-luc and pMRP-2-luc also have been described elsewhere. The hPLTP-luc promoter was kindly provided by Dr Dennis Dowhan and the hIBABP-luc promoter was created from a plasmid provided by Dr Philippe Besnard.
as §1
Cell-based transcriptional activation assays using chimeric nuclear hormone receptor (NHR) constructs were established to measure the selectivity of the compounds to FXR relative to other NHRs (Forman et al. (1995). Identification of a nuclear receptor that is activated by farnesol metabolites. Cell 81, 687-693). These assays used fusion proteins with the yeast GAL4 DNA binding domain connected to the ligand-binding domain (LBD) of NHRs. These constructs were co-transfected with a thymidine kinase C minimal promoter reporter vector containing four copies of the GAL4 binding site. Titration experiments were then performed using the identified compounds. […] Addition of RXR had no effect on the activation potential of fexaramine, fexarine, fexarene in this assay.

Row | EC50 [1] | activation of chimeric FXR construct [2] | effect of addition of RXR on activation potential [2] | selectivity for FXR relative to other NHRs [2] | SMILES | efficacy compared with GW4064 [2]
1 | 0.377 µM | little or no activity |  |  | COC(=O)/C=C/c1cccc(N(Cc2ccc(-c3ccccc3OC)cc2)C(=O)C(C)C)c1 [SRI-1] | 
2 | 0.343 µM | little or no activity |  |  | COC(=O)/C=C/c1cccc(N(Cc2ccc(-c3ccc(C(C)(C)C)cc3)cc2)C(=O)C(C)C)c1 [SRI-2] | 
3 | 0.025 µM | activate | no effect | highly selective for FXR | COC(=O)/C=C/c1cccc(N(Cc2ccc(-c3ccc(N(C)C)cc3)cc2)C(=O)C2CCCCC2)c1 [fexaramine] | more efficacious ligands for FXR than GW4064
4 | 0.036 µM | activate | no effect | highly selective for FXR | COC(=O)/C=C/c1cccc(N(Cc2ccc(/C=C/c3ccccc3)cc2)C(=O)C2CCCCC2)c1 [fexarene] | more efficacious ligands for FXR than GW4064
5 | 0.038 µM | activate | no effect | highly selective for FXR | COC(=O)/C=C/c1cccc(N(Cc2ccc(-c3ccc4c(c3)OCO4)cc2)C(=O)C2CCCCC2)c1 [fexarine] | more efficacious ligands for FXR than GW4064

Row | SMILES | EC50 [1] | activation of chimeric FXR construct [2] | effect of addition of RXR on activation potential [2] | selectivity for FXR relative to other NHRs [2] | efficacy compared with GW4064 [2]
6 | CC(C)c1onc(-c2c(Cl)cccc2Cl)c1COc1ccc(/C=C/c2cccc(C(=O)O)c2)c(Cl)c1 [GW4064, reference compound] | ~0.09 µM and 0.08 µM | activate |  |  | 
